From publication PMC6013495, “Development of a Novel Backbone Cyclic Peptide Inhibitor of the Innate Immune TLR/IL1R Signaling Protein MyD88” (Scientific Reports, 2018) come the findings set out here.

For data set [1], the system named is THP-1 cells, TLR4 ligand LPS. The data set is described as follows: hTNFα production by THP-1 macrophages stimulated with LPS (TLR4). It counts as cell-based, human. The conditions noted are these: THP-1, compound 3 hr before LPS, 24 hr, ELISA. The method, then: Figure 3 c(MyD 4-4) blocks TLR-mediated macrophage activation. (A) THP-1 cells were treated with inhibitors for 3 hr prior to activation with the TLR2 ligand Pam3CSK4 200 pg/ml for 24 h. hTNFα levels were determined by ELISA. One representative experiment of three independent experiments is shown. Asterisks represent the significance between treated cells and untreated Pam3CSK4-stimulated control. Asterisks above a cross bar represent the comparison between treatment with c(MyD 4-4) and treatment with MyDI. (B,C) Luminescence levels from the NFκB-luc murine RAW264.7 cells. The different conditions were set according to preliminary assays of each cell line. NFκB-luc RAW264.7 cells were treated with inhibitors for 24 hr and then cells were stimulated with Pam3CSK4 (10 ng/ml) (C) or LPS (50 ng/ml) (D) for 4 hr and luminescence levels were determined. One representative experiment of three independent experiments is shown. […] Human (h) TNFα levels were determined by ELISA at 24 hr. (F,G) NFκB-luc RAW264.7 cells were treated with the indicated compounds for 24 hr and then stimulated with Pam3CSK4 (F) or LPS (G) for 4 hr after which luminescence was determined. […]
(§1) Cytokines were determined using human/mouse OptEIA sets (BD Biosciences, CA, USA) according to the manufacturer’s instructions.
(In general: ELISA stands for enzyme-linked immunosorbent assay.)

The next data set deals with RAW264.7 NFκB-luc cells. The data set is described as follows: Viability of NFκB-luc RAW264.7 cells. It counts as cell-based, mouse. The conditions noted are these: 24 hr treatment.
Data set [2] relates to THP-1 cells, TLR2 ligand Pam3CSK4. Nature of the data set: hTNFα production by THP-1 macrophages stimulated with Pam3CSK4 (TLR2). The class given is cell-based, human. The conditions noted are these: THP-1, inhibitors 3 hr before Pam3CSK4, 24 h, ELISA. The method, then: MyD88 function depends on dimerization through the TIR domain[37]. The RDVLPGT peptide corresponds to the region between the βB strand and the αB helix[18] […] We screened a library of backbone cyclized peptides to identify a metabolically stable derivative of the BB loop peptide that retains the binding and functional properties of the parent peptide. The library was designed using two non-natural building blocks as previously reported. […] Tryptophan was added to the N-terminal AGBU for quantification purposes (Fig. 1). […]
Figure 3 c(MyD 4-4) blocks TLR-mediated macrophage activation. (A) THP-1 cells were treated with inhibitors for 3 hr prior to activation with the TLR2 ligand Pam3CSK4 200 pg/ml for 24 h. hTNFα levels were determined by ELISA. […] (B,C) Luminescence levels from the NFκB-luc murine RAW264.7 cells. […] NFκB-luc RAW264.7 cells were treated with inhibitors for 24 hr and then cells were stimulated with Pam3CSK4 (10 ng/ml) (C) or LPS (50 ng/ml) (D) for 4 hr and luminescence levels were determined. […] Human (h) TNFα levels were determined by ELISA at 24 hr. (F,G) NFκB-luc RAW264.7 cells were treated with the indicated compounds for 24 hr and then stimulated with Pam3CSK4 (F) or LPS (G) for 4 hr after which luminescence was determined. […]
as §1

Data set [3] in a line: Peptide stability in rat plasma. The conditions noted are these: fresh plasma of male Wistar rats, 37 °C, HPLC-MS, triplicate; for stability in plasma: 10 µg/ml, up to 240 min. It counts as in vitro ADME. The method, then:
(§2) The linear peptide and c(MyD 4-4) (10 µg/ml) were mixed with fresh plasma from male Wistar rats (Harlan, Israel) and incubated at 37 °C for 240 min. Triplicate samples were taken at time 0 and after 5, 30, 60, 120, 180 and 240 min. Rat brush border membrane vesicles (BBMV) were prepared by Ca^2+ precipitation from the combined duodenum, jejunum, and upper ileum of male rats as described[41],[42]. Briefly, intestines were washed with ice cold saline and separated from mucus. The intestinal mucosa was separated from the luminal surface and placed immediately into buffer containing […] KCl and 10 mM Tris–HCl (pH 7.5, 4 °C). The samples were then homogenated (Polytron PT 1200, Kinematica AG, Switzerland) and 10 mM CaCl2 was added. The homogenate was placed on a shaker for 30 min at 4 °C and then centrifuged 10,000 g for 10 min. The supernatant was separated and centrifuged at 48,000 g for 30 min and an additional two purification steps were undertaken by suspending the pellet in 300 mM mannitol and 10 mM Hepes/Tris (pH 7.5) and centrifuging at 24,000 g/h. The quality of the BBMV purification was tested using the brush border membrane enzyme markers gamma-glutamyl transpeptidase (GGT), leucine amino peptidase (LAP) and alkaline phosphatase (Sigma-Aldrich, St Louis, MO). Peptides were mixed with purified BBMVs in MES buffer (2-(N-morpholino)ethanesulfonic acid, 50 mM pH 7.4) and incubated at 37 °C for 120 min. Triplicate samples were taken at time 0 and after 15, 30, 45, 60, 90, and 120 min.
To determine the concentration of the compounds, experimental samples were diluted 1:1 with ice-cold acetonitrile and centrifuged (11000 RPM, 10 min). The supernatant was separated and evaporated (Vacuum Evaporation System, Labconco, Kansas City, MO). Samples were reconstituted with acetonitrile: water 70:30 and then centrifuged (11000 RPM, 10 min). The amount of the compounds was determined using high performance liquid chromatography mass spectrometry (HPLC-MS) Waters 2695 Separation Module, equipped with Micromass ZQ detector. The resulting solution (100 μl) was injected into the HPLC system. […]

Data set [4] in a line: Peptide stability in brush border membrane vesicles (BBMVs). It counts as in vitro ADME. The conditions noted are these: rat intestinal BBMVs in MES buffer 50 mM pH 7.4, 37 °C, HPLC-MS, triplicate. The method, then: as §2, with “The quality of the BBMV purification was tested using the brush border membrane enzyme markers gamma-glutamyl transpeptidase (GGT), leucine amino peptidase (LAP) and alkaline phosphatase (Sigma-Aldrich, St Louis, MO). Peptides were mixed with purified BBMVs in MES buffer (2-(N-morpholino)ethanesulfonic acid, 50 mM pH 7.4) and incubated at 37 °C for 120 min. Triplicate samples were taken at time 0 and after 15, 30, 45, 60, 90, and 120 min.” left out
To determine the concentration of the compounds, experimental samples were diluted 1:1 with ice-cold acetonitrile and centrifuged (11000 RPM, 10 min). […] The amount of the compounds was determined using high performance liquid chromatography mass spectrometry (HPLC-MS) Waters 2695 Separation Module, equipped with Micromass ZQ detector. […]

Another data set concerns THP-1 macrophages. It counts as cell-based, human. The text has this: MyD88 function depends on dimerization through the TIR domain[37]. The RDVLPGT peptide corresponds to the region between the βB strand and the αB helix[18] […] We screened a library of backbone cyclized peptides to identify a metabolically stable derivative of the BB loop peptide that retains the binding and functional properties of the parent peptide. The library was designed using two non-natural building blocks as previously reported. The method, called cycloscan, is based on the concept of screening focused backbone cyclic libraries with spatial diversity that maintain the original side chains of the active region in the protein (RDVLPGT), Backbone cyclization combines N-alkylation with cyclization. In the case of the MyD88 BB-loop decoy peptide RDVLPGT, the tertiary amide bond preceding proline served as one of the anchor sites and was therefore replaced by an N-Alkylated glycine building unit (AGBU) to allow backbone cyclization to the second AGBU at the N-terminus (Fig. 1). Tryptophan was added to the N-terminal AGBU for quantification purposes (Fig. 1). Following the above procedure 16 backbone cyclic peptides were prepared with various ring size and position of the urea bridge in the ring (Table S1). To screen the library, human THP-1 macrophages were pre-treated with the cyclic peptides and then stimulated with Pam3CSK4, a synthetic TLR2/1 lipopeptide agonist.

Data set [5] addresses T1, recombinant fusion protein SUMO-MyD88-TIR (human MyD88 TIR domain, aa 150-296, fused to SUMO) (human, UniProt Q99836 150-296).
T1 construct: MyD88, human, TIR domain residues 150-296; Cloned with BamH/XhoI into the pETM-11 SUMO3GFP fusion vector; also called recombinant MyD88 TIR domain; Recombinant MyD88 TIR protein; source: E. coli BL21 C43 (DE3), purified (HIS-select Nickel Magnetic agarose beads, eluted with 300 mM imidazole)
Nature of the data set: ELISA; competitive binding: SUMO-MyD88-TIR (8 µg/ml) attached to polystyrene plates at 4 °C overnight, blocked with 1% BSA in PBS; 125 µM Biotin-MyDI together with 10, 1, 0.1 or 0 µM competitor for 30 min; Streptavidin-HRP, absorbance at 450 nm. The conditions noted are these: both partners purified.

Data set [6] addresses T1, recombinant fusion protein …. Nature of the data set: ELISA; SUMO fusion protein attached to ELISA plate wells; biotinylated peptide added at several concentrations. The conditions noted are these: both partners purified.

Numbered stars: 1 amine (or outer) side, 2 acyl side, 3 side chain; on linkers, the order of the positions; unused ones are H or OH. Bridge positions count the residues as written; N and C are the ends. Square brackets hold non-standard residues; d marks the D form. Ends that are not written are not given here. Peptide text beside a SMILES is read from it. N(6-aminohexyl)Gly = O=C(CN(CCCCCCN[*:3])[*:1])[*:2]; CO = O=C([*:1])[*:2]; Nlys = NCCCCNCC(=O)O

T1 sequence (Q99836 150-296): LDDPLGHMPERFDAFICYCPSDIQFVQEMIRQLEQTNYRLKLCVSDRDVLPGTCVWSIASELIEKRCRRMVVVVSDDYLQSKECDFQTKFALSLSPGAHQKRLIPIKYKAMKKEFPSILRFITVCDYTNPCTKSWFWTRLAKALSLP

As for `NC(=O)[C@H]1CCS[C@@H]2C[C@]3(CCCN3C(=O)Cc3ccc(NC(=O)COc4ccc(Cl)cc4Cl)cc3)C(=O)N12` [ST2825], the “inhibition of hTNFα production” value in data set [1] and in data set [2] was “did not block” each time. In addition, the “cytotoxicity” value with RAW264.7 NFκB-luc cells is reported as “highly cytotoxic”.

For RDVLPGT-NH2 [MyDI], the “stability in plasma” value in data set [3] is given as “rapidly degraded”. In data set [4] (up to 120 min), the “stability with BBMVs” value was “rapidly degraded”.

As for `CC(C)C[C@@H]1NC(=O)[C@H](C(C)C)NC(=O)[C@H](CC(=O)O)NC(=O)[C@H](CCCNC(=N)N)NC(=O)CN(C(=O)[C@@H](N)Cc2c[nH]c3ccccc23)CCCCNC(=O)NCCCCN(CC(=O)NCC(=O)N[C@H](C(N)=O)[C@@H](C)O)C1=O` [c(MyD 4-4)] (H-W[Nlys]RDVL[Nlys]GT-NH2; linker 2-7 via CO), the “cytotoxicity” value with THP-1 macrophages is “without causing cytotoxicity”. For the same molecule, the “stability in plasma” value in data set [3] is reported as “highly stable”. For the same molecule, in data set [3] (rat, 240 minutes, mean, read-out: starting material detected after incubation in plasma), the remaining at 4 h, 10 µg/ml was greater than 90%. Besides, the remaining at 2 h in data set [4] (male, intestinal brush border membrane vesicles (BBMVs), 2 h, mean, read-out: peptide recovered at end of incubation with BBMVs) was roughly 80%.

For the molecule `CC(C)C[C@@H]1NC(=O)[C@H](C(C)C)NC(=O)[C@H](CC(=O)O)NC(=O)[C@H](CCCNC(=N)N)NC(=O)CN(C(=O)[C@@H](N)Cc2c[nH]c3ccccc23)CCCCCCNC(=O)NCCCCCCN(CC(=O)NCC(=O)N[C@H](C(N)=O)[C@@H](C)O)C1=O` [c(MyD6x6)] (H-W[N(6-aminohexyl)Gly]RDVL[N(6-aminohexyl)Gly]GT-NH2; linker 2-7 via CO), the “cytotoxicity” value with THP-1 macrophages is recorded as “without causing cytotoxicity”.

B1: MyD88 inhibitor peptide (MyDI, RDVLPGT), unlabeled linear BB loop peptide (peptide)
peptide: RDVLPGT-NH2
notes: MyD88 BB loop heptamer; also called non-biotinylated linear peptide; MyD88 BB-loop decoy peptide; source: synthetic peptide (Fmoc chemistry on Rink amide MBHA resin, HPLC purified)
With B1, the binding result in data set [5] is “binds”.

B2: Biotinylated linear BB loop peptide RDVLPGT (Biotin-MyDI) (peptide)
peptide: RDVLPGT
modifications: also: biotinylated, position not given here
notes: MyD88 BB loop heptamer; also called Biotinylated RDVLPGT; source: bought: Bio Basic Inc
Consider B2, for which the binding result in data set [6] was “binds”.
